Measured values published in ChEMBL document CHEMBL3621100, “Discovery of Novel Class I Histone Deacetylase Inhibitors with Promising in Vitro and in Vivo Antitumor Activities” (J Med Chem, 2015).

Key:
[1] = target: Histone deacetylase 1 (Homo sapiens, UniProt Q13547); assay: Inhibition of recombinant human HDAC1 after 60 mins by fluorescence assay
[2] = target: T1, Histone deacetylase 8 (Homo sapiens, UniProt Q9BY41); assay: Inhibition of recombinant human HDAC8 after 60 mins by fluorescence assay
T1 sequence (Q9BY41 whole entry): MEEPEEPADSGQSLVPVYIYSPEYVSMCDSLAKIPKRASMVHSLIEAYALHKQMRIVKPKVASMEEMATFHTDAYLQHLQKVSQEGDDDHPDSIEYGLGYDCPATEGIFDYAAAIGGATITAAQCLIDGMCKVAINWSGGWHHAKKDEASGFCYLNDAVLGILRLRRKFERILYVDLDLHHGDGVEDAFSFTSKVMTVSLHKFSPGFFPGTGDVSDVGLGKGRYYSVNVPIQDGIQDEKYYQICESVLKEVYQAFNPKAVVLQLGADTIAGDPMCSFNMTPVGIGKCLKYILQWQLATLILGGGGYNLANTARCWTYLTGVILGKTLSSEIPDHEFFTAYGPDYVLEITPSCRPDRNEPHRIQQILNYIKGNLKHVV

[3] = target: Histone deacetylase 5 (Homo sapiens, UniProt Q9UQL6); assay: Inhibition of recombinant human HDAC5 after 60 mins by fluorescence assay
[4] = target: T2, Histone deacetylase 11 (Homo sapiens, UniProt Q96DB2); assay: Inhibition of recombinant human HDAC11 after 60 mins by fluorescence assay
T2 sequence (Q96DB2 whole entry): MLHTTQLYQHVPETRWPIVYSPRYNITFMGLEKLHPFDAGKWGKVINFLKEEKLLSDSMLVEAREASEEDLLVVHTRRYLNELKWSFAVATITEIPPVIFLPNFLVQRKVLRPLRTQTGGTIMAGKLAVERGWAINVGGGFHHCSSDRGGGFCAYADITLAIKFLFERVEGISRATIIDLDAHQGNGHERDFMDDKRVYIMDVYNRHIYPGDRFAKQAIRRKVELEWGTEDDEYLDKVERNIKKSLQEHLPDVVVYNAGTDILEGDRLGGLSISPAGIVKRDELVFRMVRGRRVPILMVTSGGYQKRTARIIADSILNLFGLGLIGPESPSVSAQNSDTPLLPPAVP

[5] = target: Histone deacetylase 9 (Homo sapiens, UniProt Q9UKV0); assay: Inhibition of recombinant human HDAC9 after 60 mins by fluorescence assay
[6] = target: Histone deacetylase 4 (Homo sapiens, UniProt P56524); assay: Inhibition of recombinant human HDAC4 after 60 mins by fluorescence assay
[7] = tested on: DU-145; assay: Fold increase in DU145 over HLF selectivity (GI50 ratio) relative to FK228 after 72 hrs by CCK8 assay
[8] = Antiproliferative activity against human MOLT4 cells after 72 hrs by CCK8 assay; format: functional, MOLT-4; conditions: Homo sapiens, MOLT-4, 72 h
[9] = Antiproliferative activity against human HLF cells after 72 hrs by CCK8 assay; format: cell-based
[10] = tested on: DU-145; assay: Fold increase in DU145 over HLF selectivity (GI50 ratio) relative to largazole after 72 hrs by CCK8 assay
[11] = tested on: U-937; assay: Antiproliferative activity against human U937 cells after 72 hrs by CCK8 assay; format: functional; conditions: Homo sapiens, U-937, 72 h
[12] = Antiproliferative activity against human WI38 cells after 72 hrs by CCK8 assay; format: cell-based, WI-38
[13] = tested on: DU-145; assay: Antitumor activity against human DU145 cells xenografted in BALB/c mouse assessed as tumor growth inhibition at 20 mg/kg, iv administered for 5 times a week for after 4 weeks; format: functional; conditions: DU-145, iv, 672 h, read-out: GI
[14] = tested on: DU-145; assay: Antitumor activity against human DU145 cells xenografted in BALB/c mouse assessed as delay in tumor growth at 40 mg/kg, iv administered for 5 times a week for after 4 weeks; format: functional
[15] = tested on: DU-145; assay: Antitumor activity against human DU145 cells xenografted in BALB/c mouse assessed as delay in tumor growth at 20 mg/kg, iv administered for 5 times a week for after 4 weeks; format: functional
[16] = tested on: Mus musculus; assay: Toxicity in human DU145 cells xenografted BALB/c mouse assessed as change in body weight at 20 to 80 mg/kg, iv administered for 5 times a week for after 4 weeks; format: organism-based, DU-145; conditions: in vivo, 672 h
[17] = tested on: Mus musculus; assay: Toxicity in human DU145 cells xenografted BALB/c mouse assessed as mortality at 20 to 80 mg/kg, iv administered for 5 times a week for after 4 weeks; format: organism-based, DU-145; conditions: in vivo, 672 h
[18] = Aqueous solubility of the compound; format: physicochemical; conditions: buffer
[19] = tested on: DU-145; assay: Antitumor activity against human DU145 cells xenografted in BALB/c mouse assessed as delay in tumor growth at 80 mg/kg, iv administered for 5 times a week for after 4 weeks; format: functional
[20] = tested on: DU-145; assay: Antitumor activity against human DU145 cells xenografted in iv dosed BALB/c mouse assessed as delay in tumor growth after 4 weeks; format: functional, organism-based

Sequence of Histone deacetylase 4 (P56524 whole entry): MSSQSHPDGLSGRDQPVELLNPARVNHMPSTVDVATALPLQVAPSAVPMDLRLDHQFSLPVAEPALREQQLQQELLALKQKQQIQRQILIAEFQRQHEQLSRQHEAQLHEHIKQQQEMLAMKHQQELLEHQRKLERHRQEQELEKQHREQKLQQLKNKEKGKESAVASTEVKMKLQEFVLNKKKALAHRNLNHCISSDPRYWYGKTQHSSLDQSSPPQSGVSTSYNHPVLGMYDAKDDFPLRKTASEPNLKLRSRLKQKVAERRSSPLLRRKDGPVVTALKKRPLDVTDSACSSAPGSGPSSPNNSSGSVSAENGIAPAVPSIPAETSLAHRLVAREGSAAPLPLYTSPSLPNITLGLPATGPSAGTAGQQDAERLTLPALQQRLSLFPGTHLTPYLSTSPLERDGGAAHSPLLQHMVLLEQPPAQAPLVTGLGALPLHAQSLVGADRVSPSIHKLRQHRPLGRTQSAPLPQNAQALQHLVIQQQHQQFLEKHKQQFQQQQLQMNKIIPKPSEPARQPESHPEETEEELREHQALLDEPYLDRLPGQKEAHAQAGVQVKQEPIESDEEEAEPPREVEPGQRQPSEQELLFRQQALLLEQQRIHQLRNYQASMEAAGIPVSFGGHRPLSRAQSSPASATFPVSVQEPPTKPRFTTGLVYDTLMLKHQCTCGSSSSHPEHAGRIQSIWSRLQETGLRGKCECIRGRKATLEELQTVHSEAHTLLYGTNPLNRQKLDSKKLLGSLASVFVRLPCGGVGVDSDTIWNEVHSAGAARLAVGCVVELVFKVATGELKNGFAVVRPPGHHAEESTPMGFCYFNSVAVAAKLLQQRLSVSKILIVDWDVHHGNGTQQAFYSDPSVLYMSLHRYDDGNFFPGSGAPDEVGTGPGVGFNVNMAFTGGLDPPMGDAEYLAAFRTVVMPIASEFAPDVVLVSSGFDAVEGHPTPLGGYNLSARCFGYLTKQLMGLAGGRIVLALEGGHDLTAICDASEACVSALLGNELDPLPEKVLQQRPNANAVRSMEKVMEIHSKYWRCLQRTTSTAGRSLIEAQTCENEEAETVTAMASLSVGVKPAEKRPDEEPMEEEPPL
Sequence of Histone deacetylase 5 (Q9UQL6 whole entry): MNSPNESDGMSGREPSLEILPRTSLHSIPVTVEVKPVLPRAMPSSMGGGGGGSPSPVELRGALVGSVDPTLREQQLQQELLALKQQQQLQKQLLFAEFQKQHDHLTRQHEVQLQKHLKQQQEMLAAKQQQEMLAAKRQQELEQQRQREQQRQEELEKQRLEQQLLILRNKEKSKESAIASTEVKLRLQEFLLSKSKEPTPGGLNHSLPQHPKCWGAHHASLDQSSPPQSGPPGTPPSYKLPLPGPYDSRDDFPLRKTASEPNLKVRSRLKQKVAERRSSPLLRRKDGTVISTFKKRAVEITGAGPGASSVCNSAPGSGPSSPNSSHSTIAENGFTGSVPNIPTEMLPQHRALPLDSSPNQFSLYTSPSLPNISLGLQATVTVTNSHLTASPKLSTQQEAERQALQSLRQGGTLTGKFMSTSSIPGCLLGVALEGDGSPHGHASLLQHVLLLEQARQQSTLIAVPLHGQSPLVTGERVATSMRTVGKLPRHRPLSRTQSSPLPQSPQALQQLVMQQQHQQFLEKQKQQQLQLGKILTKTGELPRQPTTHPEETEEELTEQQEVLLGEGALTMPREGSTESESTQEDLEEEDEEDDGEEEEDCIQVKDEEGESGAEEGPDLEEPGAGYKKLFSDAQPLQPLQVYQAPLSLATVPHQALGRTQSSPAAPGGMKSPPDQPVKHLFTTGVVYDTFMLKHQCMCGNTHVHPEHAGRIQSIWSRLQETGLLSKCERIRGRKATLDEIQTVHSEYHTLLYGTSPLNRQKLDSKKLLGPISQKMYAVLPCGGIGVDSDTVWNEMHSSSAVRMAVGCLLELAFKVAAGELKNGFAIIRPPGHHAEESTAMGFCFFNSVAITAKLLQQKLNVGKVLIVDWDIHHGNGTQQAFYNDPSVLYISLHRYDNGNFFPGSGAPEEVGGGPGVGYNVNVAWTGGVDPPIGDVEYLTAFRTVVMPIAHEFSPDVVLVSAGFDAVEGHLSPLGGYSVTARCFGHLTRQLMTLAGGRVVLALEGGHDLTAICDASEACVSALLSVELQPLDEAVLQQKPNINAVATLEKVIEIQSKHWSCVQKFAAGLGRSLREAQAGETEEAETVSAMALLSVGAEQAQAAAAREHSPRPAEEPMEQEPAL
Sequence of Histone deacetylase 9 (Q9UKV0 whole entry): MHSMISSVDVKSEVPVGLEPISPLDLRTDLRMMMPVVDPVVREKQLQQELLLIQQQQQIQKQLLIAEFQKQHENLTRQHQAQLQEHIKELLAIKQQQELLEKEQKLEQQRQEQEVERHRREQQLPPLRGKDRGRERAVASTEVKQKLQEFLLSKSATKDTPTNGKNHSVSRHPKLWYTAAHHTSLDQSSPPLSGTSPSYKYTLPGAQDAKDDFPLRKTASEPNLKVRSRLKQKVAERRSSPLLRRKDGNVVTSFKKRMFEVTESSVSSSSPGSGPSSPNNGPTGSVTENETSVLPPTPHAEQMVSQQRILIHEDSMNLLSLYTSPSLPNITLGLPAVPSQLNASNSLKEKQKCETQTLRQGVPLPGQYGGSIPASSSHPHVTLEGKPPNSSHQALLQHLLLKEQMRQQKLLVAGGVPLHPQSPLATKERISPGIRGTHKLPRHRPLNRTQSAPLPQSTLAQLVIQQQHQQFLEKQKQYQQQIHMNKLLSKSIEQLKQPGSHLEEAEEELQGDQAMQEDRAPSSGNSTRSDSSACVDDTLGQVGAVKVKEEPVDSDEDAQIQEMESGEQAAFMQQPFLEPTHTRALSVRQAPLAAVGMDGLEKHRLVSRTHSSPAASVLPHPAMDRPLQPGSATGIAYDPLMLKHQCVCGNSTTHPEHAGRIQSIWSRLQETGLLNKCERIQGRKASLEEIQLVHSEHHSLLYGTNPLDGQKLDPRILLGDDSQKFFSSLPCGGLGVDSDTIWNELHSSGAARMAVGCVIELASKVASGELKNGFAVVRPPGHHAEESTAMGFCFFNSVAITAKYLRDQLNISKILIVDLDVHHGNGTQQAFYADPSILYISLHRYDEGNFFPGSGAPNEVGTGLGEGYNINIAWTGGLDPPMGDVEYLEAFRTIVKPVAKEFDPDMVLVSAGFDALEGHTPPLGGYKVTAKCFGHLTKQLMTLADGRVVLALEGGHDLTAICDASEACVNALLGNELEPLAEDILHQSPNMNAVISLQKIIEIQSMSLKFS
Sequence of Histone deacetylase 1 (Q13547 whole entry): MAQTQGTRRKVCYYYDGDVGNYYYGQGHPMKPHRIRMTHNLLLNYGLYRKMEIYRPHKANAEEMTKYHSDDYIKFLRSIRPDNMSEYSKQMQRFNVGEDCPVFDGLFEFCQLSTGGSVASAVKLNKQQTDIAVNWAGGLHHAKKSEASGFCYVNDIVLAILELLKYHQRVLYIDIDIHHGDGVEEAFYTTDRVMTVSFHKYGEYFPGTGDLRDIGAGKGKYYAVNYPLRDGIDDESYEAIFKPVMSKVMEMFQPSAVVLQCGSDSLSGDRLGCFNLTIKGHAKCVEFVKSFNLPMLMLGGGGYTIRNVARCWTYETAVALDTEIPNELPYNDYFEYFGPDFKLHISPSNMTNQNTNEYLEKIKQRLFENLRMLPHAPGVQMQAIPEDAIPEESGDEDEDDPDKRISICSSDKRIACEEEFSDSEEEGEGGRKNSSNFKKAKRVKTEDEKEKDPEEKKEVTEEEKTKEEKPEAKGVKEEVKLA

Structure (SMILES)	IC50 [1] [nM]	IC50 [2] [nM]	IC50 [3] [nM]	IC50 [4] [nM]	IC50 [5] [nM]	IC50 [6] [nM]	Ratio [7]	GI50 [8] [nM]	GI50 at 72 h [9] [nM]	Ratio [10]	GI50 [11] [nM]	GI50 at 72 h [12] [nM]	inhibition in vivo at 20 mg/kg [13] [%]	Activity [14] [%]	Activity [15] [%]	Activity [16]	Activity [17]	solubility [18]	Activity [19] [%]	Activity [20]
C/C=C1\NC(=O)c2csc(n2)CNC(=O)C[C@@H](/C=C/CCSC(C)=O)OC(=O)[C@H](C(C)C)NC1=O	21.6	> 10000	> 10000	> 10000	> 10000	> 10000		7.22	321		10.5	258	51.7	75.2	51.7	Non-toxic	Non-toxic	soluble	81.2	Dose-dependent effect
C/C=C1\NC(=O)c2csc(n2)[C@@H](C(C)C)NC(=O)C[C@@H](/C=C/CCSC(=O)CCCCCCC)OC(=O)[C@H](C(C)C)NC1=O	165	> 10000	> 10000	> 10000	> 10000	> 10000	8	22	710		31.7	561								

The next lines start with results.

IC50 [1] [nM]	IC50 [2] [nM]	IC50 [3] [nM]	IC50 [4] [nM]	IC50 [5] [nM]	IC50 [6] [nM]	Structure (SMILES)	Ratio [7]	GI50 [8] [nM]	GI50 at 72 h [9] [nM]	Ratio [10]	GI50 [11] [nM]	GI50 at 72 h [12] [nM]	inhibition in vivo at 20 mg/kg [13] [%]	Activity [14] [%]	Activity [15] [%]	Activity [16]	Activity [17]	solubility [18]	Activity [19] [%]	Activity [20]
2.18	2550	> 10000	> 10000	> 10000	> 10000	C/C=C1\NC(=O)c2csc(n2)[C@@H](C(C)C)NC(=O)C[C@@H](/C=C/CCS)OC(=O)[C@H](C(C)C)NC1=O														
158	> 10000	> 10000	> 10000	> 10000	> 10000	C/C=C1\NC(=O)c2csc(n2)CNC(=O)C[C@@H](/C=C/CCSC(=O)CCCCCCC)OC(=O)[C@H](C(C)C)NC1=O	22	5.87	312	20	6.59	157								
2.78	3550	> 10000	> 10000	> 10000	> 10000	C/C=C1\NC(=O)c2csc(n2)CNC(=O)C[C@@H](/C=C/CCS)OC(=O)[C@H](C(C)C)NC1=O														
